Where “and” joins values, the source holds several entries; their conditions need not be identical. Identical values can stand only once. Inconclusive results and toxic doses are left out.

This assay concerns P388 leukemia ip, CD2F1 mice, survival T/C. Briefly: NCI In Vivo Anticancer Drug Screen. Data for tumor model P388 Leukemia (intraperitoneal) in CD2F1 (CDF1) mice. Particulars: endpoint: median survival time, higher = longer survival. In a few lines:
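Mice carrying the transplanted tumor received test compound or vehicle. Survival was recorded in each group, and the value is the treated-group measurement divided by that of the vehicle-treated control group.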

[1] abbreviates: dose: 60.0 mg/kg/injection, schedule: Q01DX005 (ip), vehicle: Klucel (hydroxypropylcellulose) (HPC).
Where [2] appears, read: dose: 120.0 mg/kg/injection, schedule: Q01DX005 (ip), vehicle: Klucel (hydroxypropylcellulose) (HPC).
The mark [3] stands for this setting: dose: 50.0 mg/kg/injection, schedule: Q01DX009 (ip), vehicle: saline with Tween-80.
Where [4] appears, read: dose: 100.0 mg/kg/injection, schedule: Q01DX009 (ip), vehicle: saline with Tween-80.
Setting [5] is: dose: 200.0 mg/kg/injection, schedule: Q01DX009 (ip), vehicle: saline with Tween-80.
[6] abbreviates: dose: 100.0 mg/kg/injection, schedule: Q01DX001 (ip), vehicle: saline with Tween-80.

For the compound `CN(C)CCCN1c2ccccc2Sc2ccccc21`, the T/C reads like this: (dose: 18.75 mg/kg/injection, schedule: Q01DX009 (ip), vehicle: saline with Tween-80) 111 % of control; (dose: 18.75 mg/kg/injection, schedule: Q01DX009 (ip), vehicle: saline) 112 % of control; (dose: 37.5 mg/kg/injection, schedule: Q01DX009 (ip), vehicle: saline with Tween-80) 123 % of control; (dose: 37.5 mg/kg/injection, schedule: Q01DX009 (ip), vehicle: saline) 109 % of control.

Consider `Cc1nnc2sc(C(F)(F)F)nn12`, for which the T/C (dose: 50.0 mg/kg/injection, schedule: Q01DX001 (ip), vehicle: Klucel (hydroxypropylcellulose) (HPC)) is 99 % of control; the T/C (dose: 100.0 mg/kg/injection, schedule: Q01DX001 (ip), vehicle: Klucel (hydroxypropylcellulose) (HPC)) was 98 % of control; the T/C (dose: 200.0 mg/kg/injection, schedule: Q01DX001 (ip), vehicle: Klucel (hydroxypropylcellulose) (HPC)) is 101 % of control.

Take `O=c1[nH]c(=O)n(Cl)c(=O)n1Cl`: the T/C reads like this: (dose: 50.0 mg/kg/injection, schedule: Q01DX009 (ip), vehicle: Klucel (hydroxypropylcellulose) (HPC)) 116 % of control; (dose: 100.0 mg/kg/injection, schedule: Q01DX009 (ip), vehicle: Klucel (hydroxypropylcellulose) (HPC)) 99 % of control.

As for `CCCn1c(O)c(C(=O)CC)sc1=S`, the T/C was 97 % of control under setting [1] and 99 % of control under setting [2].

`CN(C)C1C[C@@H](O[Si](C)(C)C(C)(C)C)C=C1S(=O)(=O)c1ccccc1` (stereo partly drawn): under setting [1], the T/C is 87 % of control.

`O=c1[nH]c(=O)c2cc3cn[nH]c3cc2[nH]1`: the T/C (dose: 50.0 mg/kg/injection, schedule: Q01DX005 (ip), vehicle: saline with Tween-80) was 92 % of control; the T/C (dose: 100.0 mg/kg/injection, schedule: Q01DX005 (ip), vehicle: saline with Tween-80) is 89 % of control; the T/C (dose: 200.0 mg/kg/injection, schedule: Q01DX005 (ip), vehicle: saline with Tween-80) was 101 % of control.

As for `CC1(c2ccccc2)C(=O)c2ccccc2N1O` (stereo not drawn), the T/C is 98 % of control (dose: 50.0 mg/kg/injection, schedule: Q04DX002 (ip), vehicle: saline); 100 % of control (dose: 100.0 mg/kg/injection, schedule: Q04DX002 (ip), vehicle: saline); 101 % of control (dose: 200.0 mg/kg/injection, schedule: Q04DX002 (ip), vehicle: saline).

With `O=C(N=C(N=C(c1ccccc1)N1CCCCC1)c1ccccc1)c1ccccc1`, the T/C by setting is: under setting [3], 96 % of control; under setting [4], 93 % of control; under setting [5], 95 % of control.

In the case of `CCOc1c(N=Nc2ccc(Cl)cc2)c(C)nn1C(=S)S`, the T/C reads like this: under setting [1], 96 % of control; under setting [2], 97 % of control.

As to `CC(=O)C1C(=O)C(=O)N(c2ccc(F)cc2)C1=O` (stereo not drawn), the T/C was 103 % of control under setting [6]; 99 % of control (dose: 200.0 mg/kg/injection, schedule: Q01DX001 (ip), vehicle: saline with Tween-80); 98 % of control (dose: 400.0 mg/kg/injection, schedule: Q01DX001 (ip), vehicle: saline with Tween-80).

For `CCCCCCCCN1COC2CCc3ccccc3C21` (stereo not drawn), the T/C was 100 % of control (dose: 50.0 mg/kg/injection, schedule: Q01DX005 (ip), vehicle: saline); 101 % of control (dose: 100.0 mg/kg/injection, schedule: Q01DX005 (ip), vehicle: saline); 100 % of control (dose: 200.0 mg/kg/injection, schedule: Q01DX005 (ip), vehicle: saline).

Take `CCOC(=O)Nc1cc2c(c(N)n1)N=C(c1ccccc1)CN2`: the T/C was 119 % of control (dose: 2.6 mg/kg/injection, schedule: Q04DX003 (ip), vehicle: saline with Tween-80); 117 % of control and 123 % of control (dose: 3.0 mg/kg/injection, schedule: Q01DX005 (ip), vehicle: saline with Tween-80); 156 % of control (dose: 3.0 mg/kg/injection, schedule: Q01DX009 (ip), vehicle: saline with Tween-80); 105 % of control (dose: 6.0 mg/kg/injection, schedule: Q01DX009 (ip), vehicle: saline with Tween-80); 151 % of control (dose: 6.0 mg/kg/injection, schedule: Q04DX003 (ip), vehicle: saline with Tween-80); 118 % of control (dose: 6.25 mg/kg/injection, schedule: Q01DX001 (ip), vehicle: saline with Tween-80). The T/C is, setting by setting: (dose: 9.0 mg/kg/injection, schedule: Q04DX003 (ip), vehicle: saline with Tween-80) 173 % of control; (dose: 12.0 mg/kg/injection, schedule: Q01DX001 (ip), vehicle: saline with Tween-80) 151 % of control and 157 % of control; (dose: 12.5 mg/kg/injection, schedule: Q01DX001 (ip), vehicle: saline with Tween-80) 150 % of control; (dose: 18.0 mg/kg/injection, schedule: Q01DX001 (ip), vehicle: saline with Tween-80) 168 % of control.

Take `COc1ccc(N=Nc2nc(N)c(C(N)=O)[nH]2)cc1`: the T/C is, setting by setting: (dose: 100.0 mg/kg/injection, schedule: Q04DX003 (ip), vehicle: Klucel (hydroxypropylcellulose) (HPC)) 100 % of control; (dose: 200.0 mg/kg/injection, schedule: Q04DX003 (ip), vehicle: Klucel (hydroxypropylcellulose) (HPC)) 103 % of control; (dose: 400.0 mg/kg/injection, schedule: Q04DX003 (ip), vehicle: Klucel (hydroxypropylcellulose) (HPC)) 106 % of control.

As to `Cc1c(N)nc([C@H](CC(N)=O)NC[C@H](N)C(N)=O)nc1C(=O)N[C@H](C(=O)N[C@H](C)[C@@H](O)[C@H](C)C(=O)N[C@H](C(=O)NCCc1nc(-c2nc(C(=O)NCCC[S+](C)C)cs2)cs1)[C@@H](C)O)C(OC1OC(CO)C(O)C(O)C1OC1OC(CO)C(O)C(OC(N)=O)C1O)c1cnc[nH]1` (stereo partly drawn), the T/C by setting is: (dose: 3.13 mg/kg/injection, schedule: Q01DX009 (ip), vehicle: Klucel (hydroxypropylcellulose) (HPC)) 121 % of control; (dose: 3.5 mg/kg/injection, schedule: Q01DX009 (ip), vehicle: saline) 100 % of control; (dose: 3.6 mg/kg/injection, schedule: Q01DX009 (ip), vehicle: saline) 117 % of control; (dose: 4.0 mg/kg/injection, schedule: Q04DX003 (ip), vehicle: saline) 115 % of control; (dose: 5.3 mg/kg/injection, schedule: Q01DX009 (ip), vehicle: saline) 107 % of control and 114 % of control; (dose: 6.25 mg/kg/injection, schedule: Q01DX009 (ip), vehicle: Klucel (hydroxypropylcellulose) (HPC)) 123 % of control. For the same compound, the T/C by setting is: (dose: 8.0 mg/kg/injection, schedule: Q04DX003 (ip), vehicle: saline) 122 % of control; (dose: 12.0 mg/kg/injection, schedule: Q01DX009 (ip), vehicle: saline) 106 % of control and 121 % of control; (dose: 12.5 mg/kg/injection, schedule: Q01DX009 (ip), vehicle: Klucel (hydroxypropylcellulose) (HPC)) 121 % of control; (dose: 16.0 mg/kg/injection, schedule: Q04DX003 (ip), vehicle: saline) 121 % of control; (dose: 25.0 mg/kg/injection, schedule: Q01DX009 (ip), vehicle: Klucel (hydroxypropylcellulose) (HPC)) 94 % of control.

For `Sc1ccccc1N=Cc1ccc(C=Nc2ccccc2S)cc1`, the T/C (dose: 50.0 mg/kg/injection, schedule: Q01DX009 (ip), vehicle: saline) was 98 % of control; the T/C (dose: 100.0 mg/kg/injection, schedule: Q01DX009 (ip), vehicle: saline) is 99 % of control; the T/C (dose: 200.0 mg/kg/injection, schedule: Q01DX009 (ip), vehicle: saline) was 97 % of control.

Regarding `CCN(CC)Cc1c(C)[nH]c2cc(Cl)ccc2c1=O`, under setting [6], the T/C is 88 % of control.

Take `CC1(C)C/C(=C2\COC(=O)C2=O)NN1c1ccccc1`: the T/C under setting [3] was 106 % of control, the T/C under setting [4] is 99 % of control and the T/C under setting [5] was 105 % of control.

`O=S(=O)(O)c1cnc2nccn2c1`: the T/C (dose: 50.0 mg/kg/injection, schedule: Q04DX003 (ip), vehicle: suspension in saline) was 99 % of control; the T/C (dose: 100.0 mg/kg/injection, schedule: Q04DX003 (ip), vehicle: suspension in saline) was 110 % of control; the T/C (dose: 200.0 mg/kg/injection, schedule: Q04DX003 (ip), vehicle: suspension in saline) is 105 % of control.

In the case of `CCCCCCCCN(c1ccc(C(=O)NC(CCC(=O)OCC)C(=O)OCC)cc1)S(=O)(=O)c1ccc(C)cc1` (stereo not drawn), the T/C is 104 % of control (dose: 12.5 mg/kg/injection, schedule: Q04DX003 (ip), vehicle: saline with Tween-80); 100 % of control (dose: 25.0 mg/kg/injection, schedule: Q04DX003 (ip), vehicle: saline with Tween-80); 95 % of control (dose: 50.0 mg/kg/injection, schedule: Q04DX003 (ip), vehicle: saline with Tween-80).

Take `Cc1[nH]c(NC(=O)C(=O)O)c(C#N)c1C`: the T/C is 106 % of control under setting [3] and 100 % of control under setting [5].

These data come from PubChem BioAssay AID330 (DTP/NCI, 2004).
